Type in all cases: ADME, organism-based
A short description of series [1]: Plasma concentration in C215 transfected MC38 cells implanted C57BL/6 mouse assessed as 2,5-dichloro-N-(6-chloro-4-hydroxypyridin-3-yl)thiophene-3-sulfonamide level at 5 mg/kg, po dosed as cassette formulation and measured at 0.5 hrs after post dose by LC-MS analysis. The following applies: in vivo.
Series [2] is described as follows: Plasma concentration in C215 transfected MC38 cells implanted C57BL/6 mouse assessed as 2,5-dichloro-N-(6-chloro-4-hydroxypyridin-3-yl)thiophene-3-sulfonamide level at 1 mg/kg, iv dosed as cassette formulation and measured at 4 hrs after post dose by LC-MS analysis. The following applies: in vivo.
The nature of series [3]: Plasma concentration in C215 transfected MC38 cells implanted C57BL/6 mouse at 5 mg/kg, po dosed as cassette formulation and measured at 4 hrs after post dose by LC-MS analysis.
The nature of series [4]: Plasma concentration in C215 transfected MC38 cells implanted C57BL/6 mouse at 5 mg/kg, po dosed as cassette formulation and measured at 7 hrs after post dose by LC-MS analysis.
Series [5] can be described thus: Plasma concentration in C215 transfected MC38 cells implanted C57BL/6 mouse at 1 mg/kg, iv dosed as cassette formulation and measured at 2 hrs after post dose by LC-MS analysis.
The nature of series [6]: Plasma concentration in C215 transfected MC38 cells implanted C57BL/6 mouse assessed as 2,5-dichloro-N-(6-chloro-4-hydroxypyridin-3-yl)thiophene-3-sulfonamide level at 1 mg/kg, iv dosed as cassette formulation and measured at 2 hrs after post dose by LC-MS analysis. As to conditions: in vivo.
Series [7] can be described thus: Plasma concentration in C215 transfected MC38 cells implanted C57BL/6 mouse assessed as 2,5-dichloro-N-(6-chloro-4-hydroxypyridin-3-yl)thiophene-3-sulfonamide level at 5 mg/kg, po dosed as cassette formulation and measured at 4 hrs after post dose by LC-MS analysis. As to conditions: in vivo.
The nature of series [8]: Plasma concentration in C215 transfected MC38 cells implanted C57BL/6 mouse assessed as 2,5-dichloro-N-(6-chloro-4-hydroxypyridin-3-yl)thiophene-3-sulfonamide level at 1 mg/kg, iv dosed as cassette formulation and measured at 1 hr after post dose by LC-MS analysis. The following applies: in vivo.
Series [9] in a line: Plasma concentration in C215 transfected MC38 cells implanted C57BL/6 mouse assessed as 2,5-dichloro-N-(6-chloro-4-hydroxypyridin-3-yl)thiophene-3-sulfonamide level at 1 mg/kg, iv dosed as cassette formulation and measured at 0.083 hrs after post dose by LC-MS analysis. The following applies: in vivo.
The nature of series [10]: Plasma concentration in C215 transfected MC38 cells implanted C57BL/6 mouse at 5 mg/kg, po dosed as cassette formulation and measured at 2 hrs after post dose by LC-MS analysis.
The nature of series [11]: Plasma concentration in C215 transfected MC38 cells implanted C57BL/6 mouse assessed as 2,5-dichloro-N-(6-chloro-4-hydroxypyridin-3-yl)thiophene-3-sulfonamide level at 1 mg/kg, iv dosed as cassette formulation and measured at 0.5 hrs after post dose by LC-MS analysis. The following applies: in vivo.
The nature of series [12]: Plasma concentration in C215 transfected MC38 cells implanted C57BL/6 mouse at 5 mg/kg, po dosed as cassette formulation and measured at 1 hr after post dose by LC-MS analysis.
The nature of series [13]: Plasma concentration in C215 transfected MC38 cells implanted C57BL/6 mouse assessed as 2,5-dichloro-N-(6-chloro-4-hydroxypyridin-3-yl)thiophene-3-sulfonamide level at 5 mg/kg, po dosed as cassette formulation and measured at 1 hr after post dose by LC-MS analysis. As to conditions: in vivo.
Series [14] in a line: Plasma concentration in C215 transfected MC38 cells implanted C57BL/6 mouse at 1 mg/kg, iv dosed as cassette formulation and measured at 0.5 hrs after post dose by LC-MS analysis.
Series [15] can be described thus: Plasma concentration in C215 transfected MC38 cells implanted C57BL/6 mouse assessed as 2,5-dichloro-N-(6-chloro-4-hydroxypyridin-3-yl)thiophene-3-sulfonamide level at 1 mg/kg, iv dosed as cassette formulation and measured at 7 hrs after post dose by LC-MS analysis. As to conditions: in vivo.
A short description of series [16]: Plasma concentration in C215 transfected MC38 cells implanted C57BL/6 mouse at 1 mg/kg, iv dosed as cassette formulation and measured at 1 hr after post dose by LC-MS analysis.
The nature of series [17]: Plasma concentration in C215 transfected MC38 cells implanted C57BL/6 mouse assessed as 2,5-dichloro-N-(6-chloro-4-hydroxypyridin-3-yl)thiophene-3-sulfonamide level at 5 mg/kg, po dosed as cassette formulation and measured at 2 hrs after post dose by LC-MS analysis. The following applies: in vivo.
The nature of series [18]: Plasma concentration in C215 transfected MC38 cells implanted C57BL/6 mouse at 1 mg/kg, iv dosed as cassette formulation and measured at 4 hrs after post dose by LC-MS analysis.
Series [19] can be described thus: Plasma concentration in C215 transfected MC38 cells implanted C57BL/6 mouse at 1 mg/kg, iv dosed as cassette formulation and measured at 7 hrs after post dose by LC-MS analysis.
Series [20] can be described thus: Plasma concentration in C215 transfected MC38 cells implanted C57BL/6 mouse at 5 mg/kg, po dosed as cassette formulation and measured at 0.5 hrs after post dose by LC-MS analysis.
A short description of series [21]: Plasma concentration in C215 transfected MC38 cells implanted C57BL/6 mouse at 1 mg/kg, iv dosed as cassette formulation and measured at 0.083 hrs after post dose by LC-MS analysis.
Series [22] can be described thus: Plasma concentration in C215 transfected MC38 cells implanted C57BL/6 mouse assessed as 2,5-dichloro-N-(6-chloro-4-hydroxypyridin-3-yl)thiophene-3-sulfonamide level at 5 mg/kg, po dosed as cassette formulation and measured at 7 hrs after post dose by LC-MS analysis. The following applies: in vivo.

This is an account of results in ChEMBL document CHEMBL4418490, “N-(heteroaryl)-sulfonamide derivatives useful as s100-inhibitors” (2018).

Consider `COc1cc(Cl)ncc1NS(=O)(=O)c1cc(Cl)sc1Cl`, for which the concentration came out at 460 nM in [1]; 180 nM in series [2]; 210 nM in series [6]; 610 nM in series [7]; 190 nM in series [8]; 89 nM in series [9]. The concentration in series [11] stood at 200 nM; in series [13], 490 nM; in series [15] it was 130 nM; in series [17] it was 690 nM; in series [22] it was 780 nM. The concentration at 4 h was 47100 nM in series [3] and 7800 nM in series [18]. Further, the concentration at 7 h in series [4] stood at 50300 nM; in [19], 2500 nM. In addition, the concentration at 2 h was 17500 nM in [5] and 109000 nM in [10]. Also, the concentration at 1 h in series [12] was determined as 91600 nM; in series [16], 23700 nM. Further, the results for the concentration at 0.5 h in series [14] and in [20] were 19300 nM and 86800 nM, respectively. The concentration at 0.083 h in [21] came out at 32200 nM.
